Patent US10842845B2, “Oxytocin improves treatment of obstructive sleep apnea” (THE GEORGE WASHINGTON UNIVERSITY, priority 2014, dated 2020)
“Also recorded” adds a separate entry of the source.

Key:
[1] = molecular target: T1, DREADDs receptors on PVN OXT neurons (Homo sapiens, UniProt P20309, A239G/Y149C); assay: Telemetry of resting blood pressure and heart rate before and after CNO injection; format: in vivo, Sprague-Dawley rats
T1 construct: mCherry (C); host or cells: PVN oxytocin neurons of Sprague-Dawley rats, in vivo, transduced with AAV2-hSyn-DIO-hM3D(Gq)-mCherry and rAAV1-OXT-Cre
T1 sequence (P20309 whole entry Y149C/A239G, the tested form may be a part): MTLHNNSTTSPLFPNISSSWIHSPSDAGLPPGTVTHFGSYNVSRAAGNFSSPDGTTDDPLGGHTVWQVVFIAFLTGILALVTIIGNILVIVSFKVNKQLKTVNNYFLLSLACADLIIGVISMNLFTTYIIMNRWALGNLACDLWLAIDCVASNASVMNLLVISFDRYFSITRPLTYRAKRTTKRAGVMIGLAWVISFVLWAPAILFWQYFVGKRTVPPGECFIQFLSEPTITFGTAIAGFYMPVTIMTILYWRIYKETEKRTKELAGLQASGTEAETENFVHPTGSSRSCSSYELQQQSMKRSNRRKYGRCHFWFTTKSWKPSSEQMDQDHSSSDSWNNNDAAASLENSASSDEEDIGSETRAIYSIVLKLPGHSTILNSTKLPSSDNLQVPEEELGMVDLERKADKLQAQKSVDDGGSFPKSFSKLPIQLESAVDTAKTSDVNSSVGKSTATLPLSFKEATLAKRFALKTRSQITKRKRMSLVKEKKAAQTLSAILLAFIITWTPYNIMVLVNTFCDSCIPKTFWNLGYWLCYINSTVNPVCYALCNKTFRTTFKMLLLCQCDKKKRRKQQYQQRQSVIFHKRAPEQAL
From the text: To record blood pressure and heart rate, male Sprague-Dawley rats, 3-4 weeks of age, were anesthetized using isoflurane (2-4%) and a HD-XII pressure transmitter was implanted (Data Sciences International, St Paul, Minn., USA) with its cathether inserted into the abdominal aorta to record pressure and EKG leads were attached subcutaneously to obtain EKG recordings and heart rate. All rats with telemetry devices were allowed 7-14 days to recover from transmitter implantation surgery before any measurements were recorded. Blood pressure and heart rate were recorded via radio-frequency signals obtained through the Ponemah data acquisition system (Data Sciences International). Baseline recordings of blood pressure and heart rate were obtained for 3 days prior to CIH/H exposure. Prior to, and during, the 28 day CIH/H exposure period daily baseline recordings of blood pressure and heart rate were recorded.
(§1) 1-2 weeks after telemetry implantation, DREADDs receptors on PVN OXT neurons were activated daily by intraperitoneal (IP) injection of clozapine-n-oxide (CNO, 1.0 mg/kg). To investigate the effects of CNO on resting BP and HR in both DREADDs-expressing and sham animals, 3 days prior to CIH/H exposure (control days) baseline BP and HR values were recorded for a 20 min period before CNO injection. Animals from each group then received an IP injection of CNO, BP and HR were recorded for 1 hr, and the animals then underwent exposure to air for 8 hr to achieve acclimation to the chambers. During the 21 days of CIH/H exposure, baseline recordings of BP and HR were obtained before CNO injection, recorded for 1 hr post CNO injection, and for the entire duration of OHM exposure.
To examine the effects of CNO on and the chronic changes to mean arterial blood pressure (MAP) over the 21 days of OHM exposure, values were recorded before and after CNO injection on control days prior to CIH exposures, and days 1, 3, 6, 9, 12, 15, 18, and 21 of CIH/H. Changes within the DREADDs-expressing animals and the sham animals were statistically analyzed by one-way ANOVA with repeated-measures followed by Bonferroni's multiple comparison test. To examine the statistical changes in MAP between the two groups of animals, a two-way ANOVA with repeated-measures followed by Bonferroni's multiple comparison test was used. Data with p<0.05 were considered significant.
CNO administration had no effect on BP represented as mean arterial pressure (MAP) and HR in sham animals without DREADDs expression (FIGS. 10A and 10B). However, CNO administration that activates DREADDs receptors in PVN OXT neurons decreased resting HR and BP throughout 21 days of CIH/H exposure, with significant decreases in MAP (104±2.6 mmHg before CNO to 93±1.7 mmHg after CNO; n=8; ^+p<0.0001; paired t test; FIG. 10A) and HR (416±7.1 beats/min before CNO to 362±10.5 beats/min after CNO; n=8; ^+p<0.01; paired t test; FIG. 10B).

[2] = test system: OXT receptors; assay: Calcium imaging in OXT receptor-expressing CHO cells on brainstem slices upon photoactivation of ChR2-containing PVN fibers; format: cell-based, rat; details: from baseline during first second; CIH/H animals with daily injections of CNO (chronic OXT neuron activation); n=17; CIH/H alone 8.1±0.01%
Procedure: Visualization of CHO cells expressing OXT receptors and the calcium indicator, as well as ChR2-containing PVN fibers, were performed on a confocal microscope system as previously described (Gamer and Buchel, 2012). To examine activation of OXT receptors upon optogenetic activation of ChR2-expressing PVN fibers in the DMV, CHO cells were pipetted onto the dorsal motor nucleus (DMV) of brain stem slices from animals previously injected with pLenti-Syn-hChR2(H134R)-EYFP-WPRE into the PVN, OXT-sensitive CHO cells within the boundaries of the DMV and in close apposition to ChR2-containing PVN fibers (7.5±0.5 μm) were used for experiments.
as §1, with “During the 21 days of CIH/H exposure, baseline recordings of BP and HR were obtained before CNO injection, recorded for 1 hr post CNO injection, and for the entire duration of OHM exposure.” left out

## C[N+]1([O-])CCN(C2=Nc3cc(Cl)ccc3Nc3ccccc32)CC1 [CNO, clozapine-n-oxide]
[1]; DREADDs-expressing animals, 45 min after CNO injection, n=8
  change in HR after CNO injection (in words): significantly decreased
[1]; DREADDs-expressing animals, CNO 1.0 mg/kg IP, 104±2.6 mmHg before CNO, n=8
  MAP after CNO: 93±1.7 mmHg
[1]; DREADDs-expressing animals, CNO 1.0 mg/kg IP, 416±7.1 beats/min before CNO, n=8
  HR after CNO: 362±10.5 beats/min
[1]; oxytocin neuron activated (DREADDs-expressing) animals, 45 min after CNO injection, n=8
  change in resting MAP after CNO injection (in words): significantly decreased
[1]; sham animals, n=7
  effect of CNO on HR in sham animals without DREADDs expression (in words): no effect; also recorded: did not significantly change
  effect of CNO on MAP in sham animals without DREADDs expression (in words): no effect; also recorded: did not significantly change
[2]
  average increase in intracellular calcium in OXT-sensitive CHO cells upon photostimulation of ChR2-containing PVN fibers in the DMV: 23.4±0.03%
